Measured values: patent publication US8563526B2, “Triazole derivatives, their preparation and their application in therapeutics” (Institut National de la Sante et de la Recherche Medicale …, priority 2008, dated 2013)
Like-named read-outs stand apart in the source and are kept apart here.

Key:
Capan-2 cells = assay: MTT cell survival assay on Capan-2 cells; type: cell-based; details: for inhibition at 50 µM: Homo sapiens, Capan-2, 48 h, read-out: Inhibition effect on Capan-2 at 50 μM (%); for cell viability / cells die: FIG. 2
Procedure: For Capan-2 cell lines, the cells were cultured in RPMI 1640 medium supplemented with 10% FBS and 1% glutamine. Cells were seeded at a densitiy of 20,000 cells per well in 96 well View Plate™ (Packard) in 250 μl of medium containing the same components as described above.
(§1) Cells were allowed to adhere and proliferate for 24 hr. At that time, culture medium was removed and serial dilutions from 10 nM to 200 μM of the test compounds were added in culture medium. Gemcitabine and no treatment were included as positive and negative controls. Plates were further incubated at 37° C. and 5% CO2 for 48 hours. The number of viable cells remaining after the appropriate treatment was determined by Colorimetric Assay (3-(4,5-dimethylthiazol-2-yl)-2,5-diphenyl tetrazolium bromide, MTT).
(§2) Inhibition of MiaPaCa and Capan-2 cells were tested at different doses of compounds of the invention: 50 μM, 100 μM and 200 μM.
(§3) Cells were seeded on 96-well plates in 250 μL media and 24 hours later, compound to be tested was added in 250 μL of media to the desired final concentration (from 10 nM to 200 μM). After 48 hours, the number of viable cells remaining after the appropriate treatment was determined by MTT. Minimum Efficient Dose (MED) and IC50 values was evaluated from the dose-dependency study. The results in FIGS. 1, 2, 4 and 5 are presented in percentage of cell growth inhibition compared to control non treated cells.

MiaPaCa cells [1] = assay: MTT cell survival assay on MiaPaCa cells; type: cell-based; details: for inhibition at 50 µM: Homo sapiens, MIA PaCa-2, 48 h
Procedure: Pancreactic cancer cell lines, MiaPaCa cells were cultured in DMEM medium (Gibco) supplemented with 10% fetal bovine serum (FBS). Cells were seeded at a densitiy of 15,000 cells per well in 96 well View Plate™ (Packard) in 250 μl of medium containing the same components as described above.
as §1, §2, §3

pancreatic cancer = pancreatic cancer patients, first-line treatment; cited from earlier work
p-8 mRNA = p-8 mRNA expression in MiaPaCa-2 cells by quantitative RT-PCR; type: cell-based; details: FIG. 12
Text: The stress-associated protein, p-8 with antiapoptotic properties was strongly expressed in two of the most resistant pancreactic cancer cell lines, while Heat Shock Protein 27 (Hsp27) is a protein which can be over-expressed in many tumor cells and protects against apoptotic cell death triggered by various stimuli. So in order to study the intracellular target of the active compounds, the effect of the active compounds on the expression of p-8 and Hsp27 mRNA in MiaPaCa-2 cells were investigated by quantitative RT-PCR. First-strand cDNA was synthesized in 20 μL reaction with 1 μg total RNA using Expand Reverse Transcriptase (Roche, Meylan, France) following the instructions of the manufacturer. Quantitative PCR was done with the Light Cycler system (Roche) and Takara (Berkeley, Calif.) reagents. Five microliters of 10-fold diluted cDNA were mixed with 10 μL SYBR Premix Ex Taq (including Taq polymerase, reaction buffer, MgCl2, SYBR green I dye, and deoxynucleotide triphosphate mix) and […] forward and reverse primers (TBP primers are used as a control) in a volume of 20 μL. […] Each sample was analyzed in duplicate and the experiment was repeated twice. Results were analyzed using RelQuant (Roche) and expressed as percent of control values.

MiaPaCa-2 cells = assay: Combination effect with gemcitabine in vitro, MTT assay on MiaPaCa-2 cells; type: cell-based; details: combined with gemcitabine, MiaPaCa-2, FIG. 9
Text: FIG. 9 illustrates the beneficial combination effect of compounds (1, 4 or 18) in vitro based on the results obtained by using a MTT assay on MiaPaCa-2 cells.
Three compounds (compounds n^o 1, 4 and 18) combined with gemcitabine were accessed their anticancer activity.

[2] = tested on: MiaPaCa-2-xenografed tumors; assay: MiaPaCa-2 xenograft tumor growth in nude mice; type: in vivo
Procedure: The antitumor effects of the active compounds 1 and 4 were evaluated in nude mice bearing MiaPaCa-2-xenografed tumors. Institutional guidelines for the proper and human use of animals in research were followed. Approximately 1×10^7 MiaPaCa-2 cells were inoculated subcutaneously with 0.1 mL of Matrigel (BD Biosciences Discovery Labware) to 6-week-old male xenografed nude mice. When MiaPaCa-2 tumors reached 100 mm^3, mice were randomly selected for treatment with test compound and no treated mice were used as control. Each experimental group consisted of 8 mice. After randomization, 150 mg/kg test compound was injected every three days by i.p. injection for 5 weeks. The combination injection was performed every two days. Tumor volume measurements were performed once weekly and calculated by the formula length×width×depth×0.5236.

MiaPaCa cells [3] = assay: Apoptosis evaluation on MiaPaCa cells by flow cytometry (sub-G0 ratio); type: cell-based; details: 24 h after administration, FIG. 3
Procedure: Cells were plated in 10 cm dishes at the density of 300 000 cells/plate. Cells were stopped for flow cytometry analysis 12, 24 and 48 h post-treatment. After trypsination, cell pellet was washed with PBS and fixed in cold-ethanol 70% overnight at 4° C. After a wash with phosphate-citrate buffer, cells were treated with 200 μL RNA-ase (500 μg/mL), labeled with 1 mL propidium iodide (50 μg/mL), and immediately analyzed by flow cytometry (FACS Calibur, Becton Dickinson, Le Pont-De-Claix, France). Cell death analysis was done on 1,000,000 cells, evaluating the sub-G0 ratio. Each sample was performed in triplicate.

[4] = 50 μM, 48 hours, MTT, Table III
[5] = 50 μM, 48 hours, MTT, Table III, read-out: Inhibition effect on MiaPaCa-2 at 50 μM (%)
[6] = 50 μM, 48 hours, MTT, Table II, read-out: Inhibition effect on MiaPaCa at 50 μM (%)

Q: With `NC(=O)c1nc(-c2cn(Cc3ccc4ccc5cccc6ccc3c4c56)nn2)nn1COCCO` [Compound 20, 1-((2-hydroxyethoxy)methyl)-3-(1-((pyren-3-yl)methyl)-1H-1,2,3-triazol-4-yl)-1H-1,2,4-triazole-5-carboxamide] as the compound, how does the inhibition at 50 µM (Capan-2 cells; [4]) read?
A: 60.6%

Q: And the inhibition at 50 µM (MiaPaCa cells [1]; [5])?
A: 28.7%

Q: What does the source list for `Nc1ccn([C@@H]2O[C@H](CO)[C@@H](O)C2(F)F)c(=O)n1` [Gemcitabine, reference compound]?
A: cell viability (Capan-2 cells; Capan-2, with dose increase): cell viability stagnates; inhibition at 50 µM (Capan-2 cells; 50 μM, 48 hours, MTT, Table II): 61.7%; inhibition at 50 µM (Capan-2 cells; [4]): 61.7%; inhibition at 50 µM (MiaPaCa cells [1]; [6]): 29.3%; inhibition at 50 µM (MiaPaCa cells [1]; [5]): 29.3%; cells remaining alive (MiaPaCa cells [1]; MiaPaCa, 50 μM or 100 μM, FIG. 1): about 80%; response (pancreatic cancer): 12%

Q: For `COC(=O)c1nc(-c2cn(Cc3ccc4ccc5cccc6ccc3c4c56)nn2)n(COCCOC(C)=O)n1` [Compound 18, Methyl 1-((2-acetoxyethoxy)methyl)-5-(1-((pyren-3-yl)methyl)-1H-1,2,3-triazol-4-yl)-1H-1,2,4-triazole-3-carboxylate], which inhibition at 50 µM (Capan-2 cells; [4]) is on record?
A: > 50%

Q: And the “p-8 mRNA expression” value (p-8 mRNA; single treatment)?
A: significantly inhibit

Q: What about the “antiproliferation in combination with gemcitabine” value (MiaPaCa-2 cells) of the same compound?
A: more efficiency on antiproliferation

Q: Which cell viability (Capan-2 cells; Capan-2, doses higher than 100 μM) does the source give for `COC(=O)c1nc(C#CC2=CCCCC2)n([C@@H]2O[C@H](COC(C)=O)[C@@H](OC(C)=O)[C@H]2OC(C)=O)n1` [Compound 2, Methyl 5-(Cyclohexenylethynyl)-1-(2,3,5-tri-O-acetyl-β-D-ribofuranosyl)-1H-[1,2,4]triazole-3-carboxylate] here?
A: cell viability rapidly decreases

Q: What about the inhibition at 50 µM (Capan-2 cells; 50 μM, 48 hours, MTT, Table II) of the same compound?
A: 57.6%

Q: And the inhibition at 50 µM (MiaPaCa cells [1]; [6])?
A: 21.3%

Q: Which results are given for `CCCCCCCCCCCCn1cc(-c2nc(C(N)=O)nn2COCCO)nn1` [Compound 17]?
A: Inhibition effect on Capan-2 at 50 μM (%) (Capan-2 cells; [4]): 29.5%; Inhibition effect on MiaPaCa-2 at 50 μM (%) (MiaPaCa cells [1]; [4]): 43.2%

Q: Which results are given for `NC(=O)c1nc(-c2cn(Cc3ccc4ccc5cccc6ccc3c4c56)nn2)n(COCCO)n1` [Compound 19, 1-((2-hydroxyethoxy)methyl)-5-(1-((pyren-3-yl)methyl)-1H-1,2,3-triazol-4-yl)-1H-1,2,4-triazole-3-carboxamide]?
A: inhibition at 50 µM (Capan-2 cells; [4]): 43.4%; inhibition at 50 µM (MiaPaCa cells [1]; [5]): 59.3%

Q: For `NC(=O)c1nc(C#Cc2ccc(Br)cc2)n(COCCO)n1` [Compound 14, 1-((2-hydroxyethoxy)methyl)-5-(2-(4-bromophenyl)ethynyl)-1H-1,2,4-triazole-3-carboxamide], which inhibition at 50 µM (Capan-2 cells; [4]) is on record?
A: > 50%

Q: And the inhibition at 50 µM (MiaPaCa cells [1]; [5])?
A: > 50%

Q: For `COC(=O)c1nc(C#Cc2ccc(C(F)(F)F)cc2)n([C@@H]2O[C@H](COC(C)=O)[C@@H](OC(C)=O)[C@H]2OC(C)=O)n1` [Compound 1, Methyl 5-(4-trifluoromethylphenylethynyl)-1-(2,3,5-tri-O-acetyl-β-D-ribofuranosyl)-1H-[1,2,4]triazole-3-carboxylate], which cells die (Capan-2 cells; Capan-2, 50 μM) is on record?
A: about 60%

Q: And the cells die (Capan-2 cells; Capan-2, 100 μM)?
A: more than 80%

Q: What about the inhibition at 50 µM (Capan-2 cells; 50 μM, 48 hours, MTT, Table II) of the same compound?
A: > 50%

Q: And the “p-8 mRNA expression” value (p-8 mRNA; combination with gemcitabine)?
A: down-regulated

Q: And the inhibition at 50 µM (MiaPaCa cells [1]; [6])?
A: > 50%

Q: What about the cells die (MiaPaCa cells [1]; MiaPaCa, 50 μM, FIG. 1) of the same compound?
A: about 60%

Q: What about the “antiproliferation in combination with gemcitabine” value (MiaPaCa-2 cells) of the same compound?
A: more efficiency on antiproliferation

Q: What about the MiaPaCa-2 tumor volume ([2]; 150 mg/kg i.p. every three days for 5 weeks, compound alone, FIG. 10) of the same compound?
A: reduce MiaPaCa-2 tumor volume

Q: What about the “adverse effect of drug treatment” value ([2]; alone or in combination with gemcitabine, nude mice, FIG. 11) of the same compound?
A: absence of adverse effect

Q: What about the tumor growth ([2]; combined with gemcitabine, injection every two days, FIG. 10) of the same compound?
A: almost sinificantly inhibited

Q: What about the “apoptosis compared to cells treated with gemcitabine” value (MiaPaCa cells [3]) of the same compound?
A: about 4 times

Q: And the “apoptosis compared to non-treated cells” value (MiaPaCa cells [3])?
A: about 8 times

Q: Which inhibition at 50 µM (Capan-2 cells; [4]) does the source give for `COC(=O)c1nc(-c2cn(-c3ccc4ccc5cccc6ccc3c4c56)nn2)n(COCCOC(C)=O)n1` [Compound 22, Methyl 1-((2-acetoxyethoxy)methyl)-5-(1-(pyren-3-yl)-1H-1,2,3-triazol-4-yl)-1H-1,2,4-triazole-3-carboxylate] here?
A: 63.9%

Q: And the inhibition at 50 µM (MiaPaCa cells [1]; [5])?
A: 40.7%

Q: What does the source list for `NC(=O)c1nc(-c2cn(-c3cccc4ccccc34)nn2)n(COCCO)n1` [Compound 21, 1-((2-hydroxyethoxy)methyl)-5-(1-(naphthalen-1-yl)-1H-1,2,3-triazol-4-yl)-1H-1,2,4-triazole-3-carboxamide]?
A: inhibition at 50 µM (Capan-2 cells; [4]): 55.6%; inhibition at 50 µM (MiaPaCa cells [1]; [5]): 30.9%

Q: With `NC(=O)c1nc(C#Cc2ccc(C(F)(F)F)cc2)n(COCCOC(=O)c2ccccc2)n1` [Compound 15, 1-[(2-(benzoyloxy)ethoxy)methyl]-5-(2-(4-trifluoromethylphenyl)ethynyl)-1H-1,2,4-triazole-3-carboxamide] as the compound, how does the inhibition at 50 µM (Capan-2 cells; [4]) read?
A: > 50%

Q: What about the inhibition at 50 µM (MiaPaCa cells [1]; [5]) of the same compound?
A: > 50%
